Consider 19 compounds from ChEMBL document CHEMBL3414475, “Design, synthesis, and structure-activity relationship of novel LSD1 inhibitors based on pyrimidine-thiourea hybrids as potent, orally active antitumor agents” (J Med Chem, 2015).

Data set [1] deals with Lysine-specific histone demethylase 1A (Homo sapiens, UniProt O60341).
Description: Inhibition of recombinant LSD1 (157 to 852) (unknown origin) transfected in Escherichia coli BL21(DE) by fluorescence assay
Data set [2] deals with MGC-803. Kind of data set: Induction of apoptosis in human MGC803 cells assessed as formation of apoptotic bodies at 2 to 8 uM after 24 hrs by Hoechst 33258 staining-based fluorescence microscopy. The class given is functional, cell-based.
In data set [3] the test system is MGC-803. Briefly: Antiinvasive activity against human MGC803 cells at >5 uM after 48 hrs by matrigel-coated transwell assay. It is filed as functional, cell-based.
Data set [4] addresses T1, Amine oxidase [flavin-containing] A (Homo sapiens, UniProt P21397).
T1 sequence (P21397 whole entry): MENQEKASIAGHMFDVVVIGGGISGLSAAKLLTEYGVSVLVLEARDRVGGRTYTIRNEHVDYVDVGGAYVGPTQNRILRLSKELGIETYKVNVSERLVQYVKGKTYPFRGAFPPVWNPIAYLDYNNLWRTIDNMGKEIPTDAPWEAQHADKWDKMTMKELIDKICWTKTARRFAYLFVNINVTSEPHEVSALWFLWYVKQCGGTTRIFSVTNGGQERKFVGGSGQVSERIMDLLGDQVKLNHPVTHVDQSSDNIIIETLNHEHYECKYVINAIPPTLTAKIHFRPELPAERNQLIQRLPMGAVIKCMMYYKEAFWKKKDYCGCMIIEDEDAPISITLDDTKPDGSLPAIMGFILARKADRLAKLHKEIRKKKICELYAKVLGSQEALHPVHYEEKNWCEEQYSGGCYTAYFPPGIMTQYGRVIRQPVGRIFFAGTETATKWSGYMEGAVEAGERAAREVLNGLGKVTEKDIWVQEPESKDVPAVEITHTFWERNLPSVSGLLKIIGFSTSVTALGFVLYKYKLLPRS
Description: Inhibition of MAOA (unknown origin)

The subject of data set [5] is MGC-803. Kind of data set: Antiinvasive activity against human MGC803 cells at 1.25 to 5 uM after 48 hrs by wound healing assay. It is filed as functional, cell-based.
A short description of data set [6]: Antimetastatic activity in mouse B16F10 cells […] in C57BL/6 mouse assessed as lung metastatic nodule at 100 mg/kg, po administered for 14 days (reference value: 26.6 +/- 8.7). The class given is functional, B16-F10.
The test system of data set [7] is MGC-803. Kind of data set: Induction of apoptosis in human MGC803 cells assessed as crescent nuclei at 2 to 8 uM after 24 hrs by Hoechst 33258 staining-based fluorescence microscopy. The class given is functional, cell-based.
In data set [8] the test system is MGC-803. Kind of data set: Induction of apoptosis in human MGC803 cells assessed as chromatin shrinkage at 2 to 8 uM after 24 hrs by Hoechst 33258 staining-based fluorescence microscopy. It is filed as functional, cell-based.
Data set [9] has as its system MGC-803. Kind of data set: Antimigratory activity against human MGC803 cells at >5 uM after 48 hrs by transwell assay. The class given is functional, cell-based.
A short description of data set [10]: Induction of apoptosis in human MGC803 cells assessed as upregulation of Bax expression after 48 hrs by Western blotting analysis. The class given is functional, cell-based. The conditions noted are these: MGC-803.
Data set [11] concerns the target T2, Amine oxidase [flavin-containing] B (Homo sapiens, UniProt P27338).
T2 sequence (P27338 whole entry): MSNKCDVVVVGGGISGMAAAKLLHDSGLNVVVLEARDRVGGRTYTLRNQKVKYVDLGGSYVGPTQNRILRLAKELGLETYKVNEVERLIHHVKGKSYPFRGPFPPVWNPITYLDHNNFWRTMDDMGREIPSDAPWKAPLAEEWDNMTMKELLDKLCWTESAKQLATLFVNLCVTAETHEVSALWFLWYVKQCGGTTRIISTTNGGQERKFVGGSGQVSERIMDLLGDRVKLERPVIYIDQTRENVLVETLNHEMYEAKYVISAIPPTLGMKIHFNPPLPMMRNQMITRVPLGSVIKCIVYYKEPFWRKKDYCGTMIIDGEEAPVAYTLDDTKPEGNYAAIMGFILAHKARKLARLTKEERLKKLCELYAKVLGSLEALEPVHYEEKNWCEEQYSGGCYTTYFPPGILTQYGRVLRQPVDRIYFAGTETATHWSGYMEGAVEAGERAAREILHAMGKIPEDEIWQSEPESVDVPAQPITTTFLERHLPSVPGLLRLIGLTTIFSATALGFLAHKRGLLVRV
Description: Inhibition of MAOB (unknown origin)

Data set [12] in a line: cells. Conditions: Homo sapiens, HGC-27, 72 h.
Description: Cytotoxicity against human HGC27 cells after 72 hrs by MTT assay
The nature of data set [13]: cells. Conditions: Homo sapiens, SGC-7901, 72 h.
Description: Cytotoxicity against human SGC7901 cells after 72 hrs by MTT assay
Data set [14] relates to MGC-803. Kind of data set: Induction of apoptosis in human MGC803 cells assessed as down regulation of Bcl2 expression after 48 hrs by Western blotting analysis. It is filed as functional, cell-based.
Data set [15] deals with Mus musculus. Briefly: Downregulation of Bcl2 expression in nude BALB/C mouse xenografted with human MGC803 cells at 50 to 100 mg/kg, po administered for 21 days. The class given is functional, organism-based. Conditions: MGC-803.
Data set [16] deals with MGC-803. Briefly: animal or person. The conditions noted are these: Mus musculus, MGC-803, po, 504 h, read-out: TGI.
Description: Antitumor activity against human MGC803 cells xenografted in nude BALB/C mouse assessed as reduction of tumor weight at 50 mg/kg, po administered for 21 days relative to vehicle-treated control
For data set [17], the system named is MGC-803. Briefly: Induction of apoptosis in human MGC803 cells assessed as formation of apoptotic bodies after 48 hrs by annexinV-FITC/propidium iodide staining-based flow cytometry. The class given is functional, cell-based.
Data set [18] can be described thus: cells. Conditions: Homo sapiens, GES1, 72 h.
Description: Cytotoxicity against human GES-1 cells after 72 hrs by MTT assay
For data set [19], the system named is MGC-803. Conditions: Homo sapiens, 1.25 to 5 uM.
Description: Inhibition of epithelial-mesenchymal transition in human MGC803 cells assessed as down regulation of N-Cadherin at 1.25 to 5 uM after 48 hrs by Western blotting analysis
Data set [20] has as its system MGC-803. Briefly: animal or person. The conditions noted are these: Mus musculus, MGC-803, po, 504 h, read-out: TGI. The source holds these as a separate data set.
Description: Antitumor activity against human MGC803 cells xenografted in nude BALB/C mouse assessed as reduction of tumor weight at 100 mg/kg, po administered for 21 days relative to vehicle-treated control
Data set [21] in a line: Antimetastatic activity in mouse B16F10 cells […] in C57BL/6 mouse assessed as lung metastatic nodule at 50 mg/kg, po administered for 14 days (reference value: 26.6 +/- 8.7). The class given is functional, B16-F10.
For data set [22], the system named is Mus musculus. Kind of data set: Upregulation of Bax expression in nude BALB/C mouse xenografted with human MGC803 cells at 50 to 100 mg/kg, po administered for 21 days. The class given is functional, organism-based. Conditions: MGC-803.
The test system of data set [23] is Mus musculus. Kind of data set: Toxicity in nude BALB/C mouse xenografted with human MGC803 cells assessed as weight loss at 50 to 100 mg/kg, po. The class given is organism-based, MGC-803. Also on record: dose 50-100 mg/kg, route oral. Conditions: in vivo.
Data set [24] concerns MGC-803. Kind of data set: cells. The conditions noted are these: Homo sapiens, MGC-803, 72 h.
Description: Cytotoxicity against human MGC803 cells after 72 hrs by MTT assay

Active and inactive are the calls of the source. The rule behind the calls is not given here.

In [1], `C#CCSc1nc(Cl)c(C#N)c(-c2cccc(Cl)c2)n1` yielded an IC50 of more than 125 µM.

In data set [1], `N#Cc1c(Cl)nc(SCc2cn(Cc3ccccc3Cl)nn2)nc1-c1ccc(Cl)cc1` showed an IC50 of more than 125 µM.

Regarding `C#CCSc1nc(Nc2ccc(Cl)cc2)c(C#N)c(-c2ccc(Br)cc2)n1`, the IC50 in data set [1] is more than 125 µM.

Turning to `C#CCSc1nc(Nc2ccc(OC)cc2)c(C#N)c(-c2ccc(Cl)cc2)n1`, in data set [1], the IC50 was more than 125 µM.

With `C#CCSc1nc(Nc2ccc(F)cc2)c(C#N)c(-c2ccccc2)n1`, the IC50 in data set [1] was more than 125 µM.

Take `C#CCSc1nc(Nc2ccc(OC)cc2)c(C#N)c(-c2ccccc2)n1`: the IC50 in data set [1] was more than 125 µM.

In [1], `C#CCSc1nc(Cl)c(C#N)c(-c2ccc([N+](=O)[O-])cc2)n1` had a 50% inhibitory concentration (IC50) of more than 125 µM.

`COc1cc(-c2nc(SCc3ccc(F)cc3)nc(NNC(N)=S)c2C#N)cc(OC)c1OC` returned an IC50 in data set [1] of more than 125 µM.

In data set [1], `C#CCSc1nc(Nc2ccc(OC)cc2)c(C#N)c(-c2cc(OC)c(OC)c(OC)c2)n1` registered an IC50 of more than 125 µM.

Regarding `C#CCSc1nc(Nc2cccc(Cl)c2)c(C#N)c(-c2ccccc2)n1`, the IC50 in data set [1] was more than 125 µM.

Compound `C#CCSc1nc(Nc2cccc(C(F)(F)F)c2)c(C#N)c(-c2cc(OC)c(OC)c(OC)c2)n1` returned an IC50 in data set [1] of more than 125 µM.

For the compound `C#CCSc1nc(NNC(=N)N)c(C#N)c(-c2ccc([N+](=O)[O-])cc2)n1`, the IC50 in [1] is more than 125 µM.

On to `C#CCSc1nc(Nc2ccc(Cl)cc2)c(C#N)c(-c2ccccc2)n1`, for which the IC50 in data set [1] is more than 125 µM.

`C#CCSc1nc(Nc2cccc(C(F)(F)F)c2)c(C#N)c(-c2ccccc2)n1` showed an IC50 in data set [1] of more than 125 µM.

In [1], `C#CCSc1nc(Nc2ccccc2Cl)c(C#N)c(-c2ccccc2)n1` showed an IC50 of more than 125 µM.

With `C#CCSc1nc(NNC(N)=S)c(C#N)c(-c2cc(OC)c(OC)c(OC)c2)n1`, the outcome in data set [2], in data set [3], in data set [5], in data set [7], in data set [8] and in data set [9] was Active. For the same compound, the result in [15] and in data set [22] was Active. Further, the IC50 in data set [4] is more than 1250 µM; in data set [11] it was more than 1250 µM; in data set [12], 8.92 µM; in data set [13], 67.5 µM; in data set [18], 58.9 µM; in data set [24], 4.01 µM. Also, the Activity was 8.4 in data set [6]; “Dose-dependent effect” in data set [10]; “Dose-dependent effect” in data set [14]; “Dose-dependent effect” in data set [17]; 12.1 in data set [21]; “Non-toxic” in data set [23]. For the same compound, in [16], the inhibition in vivo at 50 mg/kg came out at 55.1%. Besides, the inhibition result in data set [19] was “Active”. In data set [20], the inhibition in vivo at 100 mg/kg came to 72.1%.

Compound `C#CCSc1nc(Nc2ccc(C)cc2)c(C#N)c(-c2ccccc2)n1` gave an IC50 in [1] of more than 125 µM.

The compound `C#CCSc1nc(Nc2cccc(C(F)(F)F)c2)c(C#N)c(-c2ccc(Cl)cc2)n1` displayed an IC50 in [1] of more than 125 µM.

Take `C#CCSc1nc(Nc2ccc([N+](=O)[O-])cc2)c(C#N)c(-c2ccccc2)n1`: the concentration for half-maximal inhibition (IC50) in [1] is more than 125 µM.
